In ChEMBL document CHEMBL5096162, “A review on ferulic acid and analogs based scaffolds for the management of Alzheimer's disease” (Eur J Med Chem, 2021):

Key:
[1] = target: T1, Amine oxidase [flavin-containing] B (Homo sapiens, UniProt P27338); experiment: Inhibition of recombinant human MAO-B using kynuramine as substrate preincubated for 15 mins followed by enzyme addition and further incubated for 20 mins by fluorescence microplate reader analysis
T1 sequence (P27338 whole entry): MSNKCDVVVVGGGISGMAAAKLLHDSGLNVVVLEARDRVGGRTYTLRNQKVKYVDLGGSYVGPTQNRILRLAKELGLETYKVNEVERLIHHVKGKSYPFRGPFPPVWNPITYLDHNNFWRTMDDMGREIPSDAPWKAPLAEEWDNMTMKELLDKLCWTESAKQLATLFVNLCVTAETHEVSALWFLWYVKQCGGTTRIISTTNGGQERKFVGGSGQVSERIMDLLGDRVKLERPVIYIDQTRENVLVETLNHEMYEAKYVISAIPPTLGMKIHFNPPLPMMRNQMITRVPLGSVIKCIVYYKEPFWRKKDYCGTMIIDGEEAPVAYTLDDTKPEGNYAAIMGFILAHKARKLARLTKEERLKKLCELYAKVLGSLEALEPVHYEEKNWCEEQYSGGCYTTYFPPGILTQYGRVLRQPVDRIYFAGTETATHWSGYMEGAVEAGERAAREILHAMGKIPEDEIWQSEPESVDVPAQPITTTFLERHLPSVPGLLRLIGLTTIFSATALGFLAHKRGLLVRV

[2] = target: Amyloid-beta precursor protein (Homo sapiens) (UniProt P05067); experiment: Inhibition of self-induced amyloid beta (1 to 42) (unknown origin) aggregation at 20 uM incubated for 46 to 48 hrs in dark by ThT-based fluorimetric assay; conditions: time 46-48 hrs
Sequence of Amyloid-beta precursor protein (Homo sapiens) (P05067 whole entry): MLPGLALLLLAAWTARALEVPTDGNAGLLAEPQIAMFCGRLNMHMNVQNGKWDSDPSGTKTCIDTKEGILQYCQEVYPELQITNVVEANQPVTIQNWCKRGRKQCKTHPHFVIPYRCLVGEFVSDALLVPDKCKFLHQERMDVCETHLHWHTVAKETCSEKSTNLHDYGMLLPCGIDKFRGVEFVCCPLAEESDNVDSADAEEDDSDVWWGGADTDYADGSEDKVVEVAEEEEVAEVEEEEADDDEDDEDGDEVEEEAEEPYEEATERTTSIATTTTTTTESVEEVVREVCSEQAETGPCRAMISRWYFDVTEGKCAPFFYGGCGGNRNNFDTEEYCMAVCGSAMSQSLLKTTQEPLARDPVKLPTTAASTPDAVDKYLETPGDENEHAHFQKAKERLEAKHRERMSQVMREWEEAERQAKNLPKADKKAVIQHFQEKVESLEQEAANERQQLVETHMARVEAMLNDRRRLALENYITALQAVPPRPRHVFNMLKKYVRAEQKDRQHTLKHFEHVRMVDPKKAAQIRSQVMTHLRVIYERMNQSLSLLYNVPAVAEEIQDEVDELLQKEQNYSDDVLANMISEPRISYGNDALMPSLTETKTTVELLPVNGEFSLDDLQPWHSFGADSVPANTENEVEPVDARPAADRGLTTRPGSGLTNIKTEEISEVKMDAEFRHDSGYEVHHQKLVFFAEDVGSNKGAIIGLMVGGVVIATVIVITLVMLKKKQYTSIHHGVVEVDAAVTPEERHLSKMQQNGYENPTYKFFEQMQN

[3] = target: T2, Cholinesterase (Homo sapiens, UniProt P06276)
T2 sequence (P06276 whole entry): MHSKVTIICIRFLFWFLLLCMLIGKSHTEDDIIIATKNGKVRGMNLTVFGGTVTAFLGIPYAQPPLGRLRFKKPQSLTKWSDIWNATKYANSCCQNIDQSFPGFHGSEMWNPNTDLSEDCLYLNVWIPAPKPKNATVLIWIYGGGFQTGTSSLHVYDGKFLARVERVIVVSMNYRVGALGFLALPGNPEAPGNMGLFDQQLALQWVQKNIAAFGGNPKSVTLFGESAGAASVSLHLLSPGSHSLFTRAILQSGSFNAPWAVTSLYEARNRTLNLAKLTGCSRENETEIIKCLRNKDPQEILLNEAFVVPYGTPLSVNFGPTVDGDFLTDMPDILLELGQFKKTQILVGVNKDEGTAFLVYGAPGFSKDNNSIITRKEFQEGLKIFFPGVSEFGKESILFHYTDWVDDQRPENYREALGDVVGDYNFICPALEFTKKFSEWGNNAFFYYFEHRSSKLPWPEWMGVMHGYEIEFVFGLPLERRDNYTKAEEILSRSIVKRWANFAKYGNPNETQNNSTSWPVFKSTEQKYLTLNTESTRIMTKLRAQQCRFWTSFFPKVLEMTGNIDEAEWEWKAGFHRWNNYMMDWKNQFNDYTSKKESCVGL
Description: Inhibition of human BuchE preincubated for 6 mins followed by substrate addition using butyrylthiocholine iodide as substrate by DTNB reagent based Ellman method

[4] = system: PC-12; experiment: Neuroprotective activity against amyloid beta (1 to 42)-induced cytotoxicity in rat PC-12 cells assessed as increase in cell viability at 50 uM preincubated for 2 hrs followed by amyloid beta (1 to 42) stimulation and measured after 24 hrs by MTT assay; type: functional; conditions: time 26 hrs
[5] = target: Cholinesterase (Equus caballus, UniProt P81908); experiment: Inhibition of equine serum BuchE preincubated for 6 mins followed by substrate addition using butyrylthiocholine iodide as substrate by DTNB reagent based Ellman method
Sequence of Cholinesterase (Equus caballus, UniProt P81908) (P81908 whole entry): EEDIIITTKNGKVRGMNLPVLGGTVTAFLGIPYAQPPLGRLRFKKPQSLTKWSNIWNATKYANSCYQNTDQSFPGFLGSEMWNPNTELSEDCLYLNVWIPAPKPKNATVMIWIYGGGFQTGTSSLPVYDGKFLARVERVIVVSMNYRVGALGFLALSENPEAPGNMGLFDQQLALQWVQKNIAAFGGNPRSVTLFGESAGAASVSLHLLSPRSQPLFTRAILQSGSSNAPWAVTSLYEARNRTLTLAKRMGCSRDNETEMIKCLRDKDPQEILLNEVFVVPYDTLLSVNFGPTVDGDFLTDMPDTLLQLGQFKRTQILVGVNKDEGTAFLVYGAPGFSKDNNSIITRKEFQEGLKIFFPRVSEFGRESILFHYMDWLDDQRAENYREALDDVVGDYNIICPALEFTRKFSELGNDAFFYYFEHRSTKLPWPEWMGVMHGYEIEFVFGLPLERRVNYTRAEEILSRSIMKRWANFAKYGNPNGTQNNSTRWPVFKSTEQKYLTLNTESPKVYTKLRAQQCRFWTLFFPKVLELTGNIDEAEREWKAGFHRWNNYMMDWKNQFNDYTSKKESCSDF

[6] = target: Acetylcholinesterase (Electrophorus electricus, UniProt O42275); experiment: Inhibition of electric eel AchE preincubated for 30 mins followed by substrate addition using acetylthiocholine iodide as substrate by Ellman's method
Sequence of Acetylcholinesterase (Electrophorus electricus, UniProt O42275) (O42275 whole entry): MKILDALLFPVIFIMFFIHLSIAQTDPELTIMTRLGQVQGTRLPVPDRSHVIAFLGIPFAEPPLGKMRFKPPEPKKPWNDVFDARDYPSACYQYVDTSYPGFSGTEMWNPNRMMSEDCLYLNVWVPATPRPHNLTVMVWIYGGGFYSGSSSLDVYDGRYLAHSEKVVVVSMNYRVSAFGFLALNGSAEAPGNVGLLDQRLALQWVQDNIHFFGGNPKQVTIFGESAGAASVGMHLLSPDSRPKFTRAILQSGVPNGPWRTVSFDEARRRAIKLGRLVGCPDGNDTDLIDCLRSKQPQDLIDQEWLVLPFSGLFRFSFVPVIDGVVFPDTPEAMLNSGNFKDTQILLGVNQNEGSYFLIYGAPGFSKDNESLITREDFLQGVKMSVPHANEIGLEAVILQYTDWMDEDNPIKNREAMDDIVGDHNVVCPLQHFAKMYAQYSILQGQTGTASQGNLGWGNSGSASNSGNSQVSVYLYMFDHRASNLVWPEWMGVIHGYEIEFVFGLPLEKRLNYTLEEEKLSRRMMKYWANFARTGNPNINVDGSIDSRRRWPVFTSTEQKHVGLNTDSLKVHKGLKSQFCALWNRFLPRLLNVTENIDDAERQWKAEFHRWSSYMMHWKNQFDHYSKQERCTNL

[7] = target: T2, Cholinesterase; experiment: Inhibition of human BuchE preincubated for 30 mins followed by substrate addition using butyrylthiocholine iodide as substrate by Ellman's method
[8] = target: Acetylcholinesterase (Homo sapiens, UniProt P22303); experiment: Inhibition of human AchE preincubated for 15 mins followed by substrate addition and measured for 5 mins using acetylthiocholine iodide as substrate by DTNB reagent based Ellman's method
Sequence of Acetylcholinesterase (Homo sapiens, UniProt P22303) (P22303 whole entry): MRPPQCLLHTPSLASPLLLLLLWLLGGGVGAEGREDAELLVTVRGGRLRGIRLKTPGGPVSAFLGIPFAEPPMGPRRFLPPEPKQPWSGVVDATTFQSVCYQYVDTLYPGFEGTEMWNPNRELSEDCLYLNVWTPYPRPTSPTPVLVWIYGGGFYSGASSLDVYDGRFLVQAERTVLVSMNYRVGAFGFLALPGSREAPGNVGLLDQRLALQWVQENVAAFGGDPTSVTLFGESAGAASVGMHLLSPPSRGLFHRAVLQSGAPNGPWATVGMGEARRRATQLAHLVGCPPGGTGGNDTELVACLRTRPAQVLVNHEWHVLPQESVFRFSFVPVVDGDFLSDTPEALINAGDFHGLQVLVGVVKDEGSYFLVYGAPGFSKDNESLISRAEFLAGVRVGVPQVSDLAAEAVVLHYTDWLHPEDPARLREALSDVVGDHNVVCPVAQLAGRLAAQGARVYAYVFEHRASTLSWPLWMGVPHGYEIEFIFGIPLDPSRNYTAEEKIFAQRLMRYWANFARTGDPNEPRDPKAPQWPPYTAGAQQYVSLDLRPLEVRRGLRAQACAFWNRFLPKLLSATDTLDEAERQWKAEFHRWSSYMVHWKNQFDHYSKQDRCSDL

[9] = Antioxidant activity of compound assessed as trolox equivalent of AAPH radical scavenging activity preincubated for 15 mins followed by AAPH addition and measured every 1 min for 60 mins by ORAC-FL assay; type: functional; conditions: time 75.0 min
[10] = target: Amyloid-beta precursor protein (Homo sapiens) (UniProt P05067); experiment: Inhibition of self-induced amyloid beta (1 to 40) (unknown origin) aggregation at 20 uM incubated for 48 hrs by ThT-based fluorimetric assay
[11] = Antioxidant activity assessed as DPPH radical scavenging activity at 200 uM incubated for 2 hrs in dark by spectrophotometric analysis; type: functional
[12] = system: SH-SY5Y; experiment: Neuroprotective activity against H2O2-induced cytotoxicity in human SH-SY5Y cells assessed as increase in cell viability at 10 uM preincubated for 24 hrs followed by H2O2 stimulation and measured after 24 hrs by MTS assay; type: functional; conditions: time 48 hrs
[13] = target: T1, Amine oxidase [flavin-containing] B; experiment: Inhibition of human MAO-B using p-tyramine as substrate preincubated for 15 mins followed by susbtrate addition and measured after 15 mins by HRP and Amplex Red reagent based fluorometric analysis
[14] = target: T3, Amine oxidase [flavin-containing] A (Homo sapiens, UniProt P21397); experiment: Inhibition of human MAO-A using p-tyramine as substrate preincubated for 15 mins followed by susbtrate addition and measured after 15 mins by HRP and Amplex Red reagent based fluorometric analysis
T3 sequence (P21397 whole entry): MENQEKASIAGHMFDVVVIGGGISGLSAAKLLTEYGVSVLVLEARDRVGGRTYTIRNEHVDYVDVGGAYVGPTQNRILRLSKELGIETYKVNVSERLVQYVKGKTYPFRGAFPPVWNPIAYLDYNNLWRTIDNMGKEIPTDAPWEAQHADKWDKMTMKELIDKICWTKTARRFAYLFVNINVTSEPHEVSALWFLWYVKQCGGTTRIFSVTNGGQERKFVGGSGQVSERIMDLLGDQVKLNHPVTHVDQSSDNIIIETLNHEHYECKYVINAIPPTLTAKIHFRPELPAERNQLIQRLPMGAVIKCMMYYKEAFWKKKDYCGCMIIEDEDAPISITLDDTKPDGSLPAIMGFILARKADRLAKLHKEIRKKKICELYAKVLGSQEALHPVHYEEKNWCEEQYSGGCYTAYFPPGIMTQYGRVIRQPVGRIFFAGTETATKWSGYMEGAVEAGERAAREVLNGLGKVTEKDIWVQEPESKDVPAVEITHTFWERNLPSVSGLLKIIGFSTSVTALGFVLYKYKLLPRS

Q: Which IC50 [1] does the source give for O=C(/C=C/c1ccc(O)cc1)OCCc1ccccc1 here?
A: 13 nM

Q: Which results are given for COc1ccc(/C=C/C(=O)Nc2cc[n+](Cc3ccc(F)cc3)cc2)cc1OC.[Br-]?
A: inhibition [2]: 65.6%; IC50 [3]: 4.4 nM; Activity [4]: 66.6%; IC50 [5]: 2.6 nM

Q: Which results are given for COc1cc(/C=C/C(=O)O[C@H]2C[C@H]3O[C@H](OC(=O)Nc4ccccc4)C[C@H]3O2)ccc1O?
A: IC50 [6]: 27100 nM; IC50 [7]: 29200 nM

Q: With C[N+](C)(C)CCNC(=O)/C=C/c1ccc(O)c(O)c1 as the compound, how does the IC50 [8] read?
A: 7300 nM

Q: Which Activity [9] does the source give for O=C(NCc1ccccc1)C(c1cc2ccccc2nc1Cl)N(Cc1ccccc1)C(=O)/C=C/c1ccc(O)c(O)c1 (centres undefined) here?
A: 6.86 equiv

Q: And the inhibition [10]?
A: 62.7%

Q: And the Activity [11]?
A: > 77%

Q: What about the Activity [12] of the same compound?
A: 21.87%

Q: Which Ki [13] does the source give for COc1ccc(/C=C/C(=O)NCCc2ccccc2)cc1O here?
A: 110 nM

Q: And the Ki [14]?
A: 1950 nM
